Molecules are shown by their SMILES.

Consider 39 compounds from US9029376B2, “Small molecule inhibitors for the treatment or prevention of dengue virus infection” (Siga Technologies, Inc., priority 2008, dated 2015).

For one experiment, the system named is Dengue-2 (Strain New Guinea C). The experiment is described as follows: Dengue-2 viral yield assay in Vero cells. It is filed as cell-based. The note with it: Dengue virus, Vero, 48 h, read-out: Activity (anti-dengue 2 viral activity, EC50). Here is the method: Compounds that were active in the primary screen were tested for activity in viral yield assays. […] Vero cells in 12-well plates were infected with dengue-2 virus at a multiplicity of infection (MOI) of 0.1, treated with compound (or DMSO as a control), incubated at 37° C., harvested 48 hours post infection and titered on Vero cells as described above. The EC50 was calculated through ExcelFit. Those compounds with activity below 1 μM are indicated with “A”, those with activity between 1 and 10 μM are indicated with “B”, and those with activity between 10 and 25 μM with “C”.
By EC50 is commonly meant the concentration at which the effect is half-maximal. Consider `Nc1ccc2nc(SCC(=O)N3CCCC3)sc2c1` [Compound 59, 2-(6-Amino-benzothiazol-2-ylsulfanyl)-1-pyrrolidin-1-yl-ethanone], for which the concentration for a half-maximal effect (EC50) is more than 25 µM.
For `O=C(CSc1nc2ccccc2[nH]1)N1CCN(c2ccccc2)CC1` [Compound 46, 2-(1H-Benzoimidazol-2-ylsulfanyl)-1-(4-phenyl-piperazin-1-yl)-ethanone], the EC50 was more than 25 µM.
The same measure, in the same setting: under `NC(=O)C1(N2CCCCC2)CCN(C(=O)CSc2nc3ccccc3[nH]2)CC1` [Compound 70, 1′-[2-(1H-Benzoimidazol-2-ylsulfanyl)-acetyl]-[1,4′]bipiperidinyl-4′-carboxylic acid amide] stands more than 25 µM; under `Nc1ccc2nc(SCC(=O)N3CCOCC3)sc2c1` [Compound 16, 2-(6-Amino-benzothiazol-2-ylsulfanyl)-1-morpholin-4-yl-ethanone], more than 25 µM; under `O=C(CSc1nc2ccccc2o1)N1CCN(c2ccc(Cl)cc2)CC1` [Compound 80, 2-(Benzooxazol-2-ylsulfanyl)-1-[4-(4-chloro-phenyl)-piperazin-1-yl]-ethanone], more than 25 µM.
Take `CCCC(=O)Nc1ccc2nc(SCC(=O)N3CCN(c4ccccc4)CC3)sc2c1` [Compound 75, N-{2-[2-oxo-2-(4-phenyl-piperazin-1-yl)-ethylsulfanyl]-benzothiazol-6-yl}-butyramide]: the half-maximal effective concentration (EC50) is more than 25 µM.
`NC(=O)C1(N2CCCCC2)CCN(C(=O)CSc2nc3ccccc3s2)CC1` [Compound 9, 1′-[2-(Benzothiazol-2-ylsulfanyl)-acetyl]-[1,4′]bipiperidinyl-4′-carboxylic acid amide]: the EC50 lay within 1 to 10 µM.
Same read-out and setting: under `O=C(CSc1nc2ccccc2o1)N1CCN(c2ccccc2)CC1` [Compound 76, 2-(Benzooxazol-2-ylsulfanyl)-1-(4-phenyl-piperazin-1-yl)-ethanone] stands more than 25 µM; under `O=C(Nc1ccc2nc(SCC(=O)N3CCOCC3)sc2c1)c1ccccc1Br` [Compound 20, 2-Bromo-N-[2-(2-morpholin-4-yl-2-oxo-ethylsulfanyl)-benzothiazol-6-yl]-benzamide], more than 25 µM; under `O=C1CC(N2CCN(c3nc4ccccc4s3)CC2)C(=O)N1c1ccc(F)cc1` (stereo not drawn) [Compound 60, 3-(4-Benzothiazol-2-yl-piperazin-1-yl)-1-(4-fluoro-phenyl)-pyrrolidine-2,5-dione], more than 25 µM.
Same read-out and setting: to `O=C(CSc1nc2ccccc2s1)N1CCCCC1` [Compound 41, 2-(Benzothiazol-2-ylsulfanyl)-1-piperidin-1-yl-ethanone] belongs more than 25 µM.
Same read-out and setting: to `O=C(CSc1nc2ccccc2[nH]1)N1CCN(c2ccc(F)cc2)CC1` [Compound 8, 2-(1H-Benzoimidazol-2-ylsulfanyl)-1-[4-(4-fluoro-phenyl)-piperazin-1-yl]-ethanone] belongs 1 to 10 µM.
With `CCOc1ccc2nc(SCC(=O)N3CCc4ccccc4C3)sc2c1` [Compound 7, 1-(3,4-Dihydro-1H-isoquinolin-2-yl)-2-(6-ethoxy-benzothiazol-2-ylsulfanyl)-ethanone], the 50% effective concentration (EC50) lay in the range of 1 to 10 µM.
The same measure, in the same setting: under `O=C(Nc1ccc2nc(SCC(=O)N3CCOCC3)sc2c1)c1ccccc1` [Compound 21, N-[2-(2-Morpholin-4-yl-2-oxo-ethylsulfanyl)-benzothiazol-6-yl]-benzamide] stands more than 25 µM; under `COc1ccccc1C(=O)Nc1ccc2nc(SCC(=O)N3CCOCC3)sc2c1` [Compound 28, 2-Methoxy-N-[2-(2-morpholin-4-yl-2-oxo-ethylsulfanyl)-benzothiazol-6-yl]-benzamide], more than 25 µM.

Still in this experiment, the particulars now being: Dengue virus; Dengue-2 strain New Guinea C, Vero cells, MOI 0.1, harvested 48 hours post infection, viral yield; read-out: Activity (anti-dengue 2 viral activity, EC50).
Regarding `O=C(Nc1ccc2nc(SCC(=O)N3CCCC3)sc2c1)c1ccccc1Br` [Compound 65, 2-Bromo-N-[2-(2-oxo-2-pyrrolidin-1-yl-ethylsulfanyl)-benzothiazol-6-yl]-benzamide], the concentration giving a half-maximal response (EC50) was more than 25 µM.
Still for that read-out and setting: to `O=C(CSc1nc2ccc([N+](=O)[O-])cc2s1)N1CCCC1` [Compound 55, 2-(6-Nitro-benzothiazol-2-ylsulfanyl)-1-pyrrolidin-1-yl-ethanone] belongs more than 25 µM.
As to `CC(=O)Nc1ccc2nc(SCC(=O)N3CCN(c4ccccc4)CC3)sc2c1` [Compound 57, N-{2-[2-Oxo-2-(4-phenyl-piperazin-1-yl)-ethylsulfanyl]-benzothiazol-6-yl}-acetamide], the EC50 was more than 25 µM.
Same read-out and setting: to `O=C(CSc1nc2ccccc2n1-c1ccccc1)N1CCN(c2ccccc2)CC1` [Compound 51, 2-(1-Phenyl-1H-benzoimidazol-2-ylsulfanyl)-1-(4-phenyl-piperazin-1-yl)-ethanone] belongs more than 25 µM; to `CCC(=O)Nc1ccc2nc(SCC(=O)N3CCCCC3)sc2c1` [Compound 2, N-[2-(2-oxo-2-piperidin-1-yl-ethylsulfanyl)-benzothiazol-6-yl]-propionamide], less than 1 µM.
The same measure, in the same setting: to `O=C(CSc1nc2ccccc2s1)N1CCN(c2nc3ccccc3s2)CC1` [Compound 50, 1-(4-Benzothiazol-2-yl-piperazin-1-yl)-2-(benzothiazol-2-ylsulfanyl)-ethanone] belongs more than 25 µM; to `Cn1c(Cc2cccc3ccccc23)nnc1SCC(=O)Nc1ccc2nc(SCC(=O)N3CCOCC3)sc2c1` [Compound 36, 2-(4-Methyl-5-naphthalen-1-ylmethyl-4H-[1,2,4]triazol-3-ylsulfanyl)-N-[2-(2-morpholin-4-yl-2-oxo-ethylsulfanyl)-benzothiazol-6-yl]-acetamide], more than 25 µM.
As for `O=C(CSc1nc2ccc([N+](=O)[O-])cc2s1)N1CCCCC1` [Compound 49, 2-(6-Nitro-benzothiazol-2-ylsulfanyl)-1-piperidin-1-yl-ethanone], the EC50 is more than 25 µM.
For `Nc1ccc2nc(SCC(=O)N3CCN(c4ccc(Cl)cc4)CC3)sc2c1` [Compound 77, 2-(6-Amino-benzothiazol-2-ylsulfanyl)-1-[4-(4-chloro-phenyl)-piperazin-1-yl]-ethanone], the concentration for a half-maximal effect (EC50) was more than 25 µM.
For the compound `O=C(CSc1nnc(-c2ccccc2)n1-c1ccccc1)Nc1ccc2nc(SCC(=O)N3CCOCC3)sc2c1` [Compound 35, 2-(4,5-Diphenyl-4H-[1,2,4]triazol-3-ylsulfanyl)-N-[2-(2-morpholin-4-yl-2-oxo-ethylsulfanyl)-benzothiazol-6-yl]-acetamide], the EC50 is more than 25 µM.
As for `O=C(CSc1nc2ccccc2o1)N1CCN(Cc2ccccc2)CC1` [Compound 11, 2-(Benzooxazol-2-ylsulfanyl)-1-(4-benzyl-piperazin-1-yl)-ethanone], the EC50 lay within 1 to 10 µM.
On the same count and under the same terms, under `O=C(CSc1nc2ccccc2[nH]1)N1CCOCC1` [Compound 42, 2-(1H-Benzoimidazol-2-ylsulfanyl)-1-morpholin-4-yl-ethanone] stands more than 25 µM; under `Cc1ccc(C(=O)Nc2ccc3nc(SCC(=O)N4CCCCC4)sc3c2)cc1` [Compound 56, 4-Methyl-N-[2-(2-oxo-2-piperidin-1-yl-ethylsulfanyl)-benzothiazol-6-yl]-benzamide], more than 25 µM.
The same measure, in the same setting: to `O=C(Nc1ccc2nc(SCC(=O)N3CCOCC3)sc2c1)c1ccc(Cl)c(Cl)c1` [Compound 29, 3,4-Dichloro-N-[2-(2-morpholin-4-yl-2-oxo-ethylsulfanyl)-benzothiazol-6-yl]-benzamide] belongs more than 25 µM; to `O=C(CCc1ccccc1)Nc1ccc2nc(SCC(=O)N3CCOCC3)sc2c1` [Compound 1, N-[2-(2-Morpholin-4-yl-2-oxo-ethylsulfanyl)-benzothiazol-6-yl]-3-phenyl-propionamide], less than 1 µM; to `CCOc1ccc2nc(SCC(=O)N3CCN(c4ccccc4)CC3)sc2c1` [Compound 14, 2-(6-Ethoxy-benzothiazol-2-ylsulfanyl)-1-(4-phenyl-piperazin-1-yl)-ethanone], 10 to 25 µM.
Still for that read-out and setting: to `Nc1ccc2nc(SCC(=O)N3CCN(c4nc5ccccc5s4)CC3)sc2c1` [Compound 40, 2-(6-Amino-benzothiazol-2-ylsulfanyl)-1-(4-benzothiazol-2-yl-piperazin-1-yl)-ethanone] belongs more than 25 µM; to `Cn1c(SCC(=O)Nc2ccc3nc(SCC(=O)N4CCOCC4)sc3c2)nnc1-c1ccccc1` [Compound 37, 2-(4-Methyl-5-phenyl-4H-[1,2,4]triazol-3-ylsulfanyl)-N-[2-(2-morpholin-4-yl-2-oxo-ethylsulfanyl)-benzothiazol-6-yl]-acetamide], more than 25 µM.
As for `O=C(Nc1ccc2nc(SCC(=O)N3CCOCC3)sc2c1)C1CCCCC1` [Compound 32, Cyclohexanecarboxylic acid [2-(2-morpholin-4-yl-2-oxo-ethylsulfanyl)-benzothiazol-6-yl]-amide], the EC50 was more than 25 µM.
On the same count and under the same terms, under `O=C(Cc1cccc2ccccc12)Nc1ccc2nc(SCC(=O)N3CCOCC3)sc2c1` [Compound 38, N-[2-(2-Morpholin-4-yl-2-oxo-ethylsulfanyl)-benzothiazol-6-yl]-2-naphthalen-1-yl-acetamide] stands more than 25 µM.
Same read-out and setting: under `O=C(CSc1nc2ccccc2s1)N1CCN(C(c2ccccc2)c2ccccc2)CC1` [Compound 72, 1-(4-Benzhydryl-piperazin-1-yl)-2-(benzothiazol-2-ylsulfanyl)-ethanone] stands more than 25 µM; under `O=C(CSc1nc2ccc(/N=C/c3ccc(Cl)cc3)cc2s1)N1CCOCC1` [Compound 18, 2-(6-{[1-(4-Chloro-phenyl)-meth-(E)-ylidene]-amino}-benzothiazol-2-ylsulfanyl)-1-morpholin-4-yl-ethanone], more than 25 µM.
`O=C(Nc1ccc2nc(SCC(=O)N3CCCC3)sc2c1)c1ccc(Cl)cc1` [Compound 58, 4-Chloro-N-[2-(2-oxo-2-pyrrolidin-1-yl-ethylsulfanyl)-benzothiazol-6-yl]-benzamide]: the EC50 is more than 25 µM.
Consider `O=C(CSc1nc2ccccc2s1)N1CCN(c2ccc(F)cc2)CC1` [Compound 71, 2-(Benzothiazol-2-ylsulfanyl)-1-[4-(4-fluoro-phenyl)-piperazin-1-yl]-ethanone], for which the 50% effective concentration (EC50) was more than 25 µM.
